Results as given in patent US12077531B2, “Imidazopyridinone compound” (KISSEI PHARMACEUTICAL CO., LTD., priority 2018, dated 2024).
Structures can show the parent of a compound that is named as a salt.

Target: human PHD2184-418 (Homo sapiens (Human), UniProt Q9GZT9)
Assay: PHD2 inhibitory test (fluorescence polarization, binding between PHD2 and HIF-1α)
Details: human PHD2184-418, FITC-labeled HIF-1α556-574, 2 μM 2-oxoglutarate, 37° C. 60 minutes
Method: Test Example 1 PHD2 Inhibitory Test
(1) Expression and Preparation of Human PHD2184-418
Human PHD2184-418 containing amino acid residues 184 to 418 of the protein represented by CAC42509 (GenBank accession ID) was expressed and prepared by the following method.
An expression construct of human PHD2184-418 containing N-terminal histidine tag was introduced into pET-30a (+) vector, and the sequence was confirmed. This vector was introduced into BL21 (DE3) strain and cultured at 37° C. in LB medium containing antibiotics. After culturing, a cell lysis solution was added to the cells, and then the cells were disrupted by sonication. The disrupted suspension was centrifuged and the supernatant was purified by Ni column to give human PHD2184-418.
Human HIF-1α556-574 (FITC-labeled HIF-1α556-574), containing N-terminal FITC-Ahx, containing amino acid residues 556 to 574 (partial peptide) of HIF-1α was used as a substrate. Using FITC-labeled HIF-1α556-574, the competitive inhibition between 2-oxoglutarate and test compounds (PHD inhibitor) was evaluated based on the change in fluorescence polarization by the following method.
An enzyme (human PHD2184-418) and the substrate were diluted with an assay buffer (pH 7.4) containing 10 mM HEPES, 150 mM NaCl, 10 μM MnCl2-4H2O, 2 μM 2-oxoglutarate and 0.05% Tween-20. Test compounds were diluted with DMSO. Test compounds and human PHD2184-418 was added to the 384-well plate (Corning, black, opaque bottom) in advance. The reaction was started by the addition of FITC-labeled HIF-1α556-574. After incubating at 37° C. for 60 minutes, fluorescence polarization (excitation wavelength: 470 nm, fluorescence wavelength: 530 nm) was measured by PHERAstar FSX (BMG Labtech). Fluorescence polarization of each well was measured, and human PHD2 binding inhibitory activity of test compounds was calculated based on the value of test compound-free group.

Chain of human PHD2184-418 (Q9GZT9 184-418): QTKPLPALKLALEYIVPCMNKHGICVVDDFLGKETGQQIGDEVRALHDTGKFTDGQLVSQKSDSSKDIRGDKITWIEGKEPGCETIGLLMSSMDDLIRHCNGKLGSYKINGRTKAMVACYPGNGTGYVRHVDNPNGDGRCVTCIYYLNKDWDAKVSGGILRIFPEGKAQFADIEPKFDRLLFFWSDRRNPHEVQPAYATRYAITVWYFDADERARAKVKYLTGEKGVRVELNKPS

Compared with `Cn1ccnc1CN1CC(n2c(=O)n(-c3ccc(-c4ccccc4)cc3)c3cccnc32)C1` [Example 13, 1-([1,1′-Biphenyl]-4-yl)-3-(1-((1-methyl-1H-imidazol-2-yl)methyl)azetidin-3-yl)-1,3-dihydro-2H-imidazo[4,5-b]pyridin-2-one], `Cc1ccccc1-c1ccc(-n2c(=O)n([C@H]3CCN(Cc4nccn4C)C3)c3ncccc32)cc1` [Example 29, (S)-3-(1-((1-Methyl-1H-imidazol-2-yl)methyl)pyrrolidin-3-yl)-1-(2′-methyl-[1,1′-biphenyl]-4-yl)-1,3-dihydro-2H-imidazo[4,5-b]pyridin-2-one] is 17-fold higher in IC50: 120 nM for the first, 2090 nM for the second.

Going from `Cn1ccnc1CN1CC[C@H](n2c(=O)n(-c3ccc(-c4ccc(O)cc4)cc3)c3cccnc32)C1` [Example 14, (S)-1-(4′-Hydroxy-[1,1′-biphenyl]-4-yl)-3-(1-((1-methyl-1H-imidazol-2-yl)methyl)pyrrolidin-3-yl)-1,3-dihydro-2H-imidazo[4,5-b]pyridin-2-one] to `COC(=O)c1ccc(-c2ccc(-n3c(=O)n([C@H]4CCN(Cc5nccn5C)C4)c4ncccc43)cc2)cc1` [Example 37, Methyl (S)-4′-(3-(1-((1-methyl-1H-imidazol-2-yl)methyl)pyrrolidin-3-yl)-2-oxo-2,3-dihydro-1H-imidazo[4,5-b]pyridin-1-yl)-[1,1′-biphenyl]-4-carboxylate], the IC50 rises from 360 nM to 6280 nM (17-fold). The first is the more potent here.

Going from `COC(=O)c1ccc(-n2c(=O)n([C@H]3CCN(Cc4ncccc4C)C3)c3ncccc32)cc1` [Example 15, Methyl (S)-4-(3-(1-((3-methylpyridin-2-yl)methyl)pyrrolidin-3-yl)-2-oxo-2,3-dihydro-1H-imidazo[4,5-b]pyridin-1-yl)benzoate] to `Cc1cccnc1CN1CC[C@H](n2c(=O)n(-c3ccc(-c4ccc(F)cc4)cc3)c3cccnc32)C1` [Example 31, (S)-1-(4′-Fluoro-[1,1′-biphenyl]-4-yl)-3-(1-((3-methylpyridin-2-yl)methyl)pyrrolidin-3-yl)-1,3-dihydro-2H-imidazo[4,5-b]pyridin-2-one], the IC50 falls from 64500 nM to 12400 nM (5.2-fold). The second is the more potent here.

Compared with `O=C(O)c1ccnc(CN2CC[C@H](n3c(=O)n(-c4ccc(-c5ccccc5)cc4)c4cccnc43)C2)c1` [Example 16, (S)-2-((3-(1-([1,1′-Biphenyl]-4-yl)-2-oxo-1,2-dihydro-3H-imidazo[4,5-b]pyridin-3-yl)pyrrolidin-1-yl)methyl)isonicotinic acid], `O=C(O)c1ccc(CN2CC[C@H](n3c(=O)n(-c4ccc(-c5ccccc5)cc4)c4cccnc43)C2)nc1` [Example 17, (S)-6-((3-(1-([1,1′-Biphenyl]-4-yl)-2-oxo-1,2-dihydro-3H-imidazo[4,5-b]pyridin-3-yl)pyrrolidin-1-yl)methyl)nicotinic acid] is 3.7-fold higher in IC50: 140 nM for the first, 520 nM for the second. The first is the more potent here.

Compared with `COc1ccc(-n2c(=O)n([C@H]3CCN(Cc4cc(C(=O)O)ccn4)C3)c3ncccc32)cc1` [Example 18, (S)-2-((3-(1-(4-Methoxyphenyl)-2-oxo-1,2-dihydro-3H-imidazo[4,5-b]pyridin-3-yl)pyrrolidin-1-yl)methyl)isonicotinic acid], `O=C(O)c1ccnc(CN2CC[C@H](n3c(=O)n(-c4ccccc4)c4cccnc43)C2)c1` [Example 19, (S)-2-((3-(2-Oxo-1-phenyl-1,2-dihydro-3H-imidazo[4,5-b]pyridin-3-yl)pyrrolidin-1-yl)methyl)isonicotinic acid] is 3.3-fold higher in IC50: 1950 nM for the first, 6340 nM for the second.

Going from `Cn1ccnc1CN1CC[C@H](n2c(=O)n(-c3ccc(-c4ccccc4)cc3)c3ccc(C(=O)O)nc32)C1` [Example 20, (S)-1-([1,1′-Biphenyl]-4-yl)-3-(1-((1-methyl-1H-imidazol-2-yl)methyl)pyrrolidin-3-yl)-2-oxo-2,3-dihydro-1H-imidazo[4,5-b]pyridine-5-carboxylic acid] to `Cn1ccnc1CN1CC[C@H](n2c(=O)n(-c3ccc(-c4ccncc4)cc3)c3cccnc32)C1` [Example 36, (S)-3-(1-((1-Methyl-1H-imidazol-2-yl)methyl)pyrrolidin-3-yl)-1-(4-(pyridin-4-yl)phenyl)-1,3-dihydro-2H-imidazo[4,5-b]pyridin-2-one hydrochloride], the IC50 falls from 6710 nM to 1510 nM (4.4-fold).

Compared with `Cn1c(C(=O)O)cnc1CN1CC[C@H](n2c(=O)n(-c3ccc4ccccc4c3)c3cccnc32)C1` [Example 22, (S)-1-Methyl-2-((3-(1-(naphthalen-2-yl)-2-oxo-1,2-dihydro-3H-imidazo[4,5-b]pyridin-3-yl)pyrrolidin-1-yl)methyl)-1H-imidazole-5-carboxylic acid], `Cc1cnc2c(c1)n(-c1ccc(-c3ccc(C(=O)O)cc3)cc1)c(=O)n2[C@H]1CCN(Cc2ncc(C(=O)O)n2C)C1` [Example 27, (S)-2-((3-(1-(4′-Carboxy-[1,1′-biphenyl]-4-yl)-6-methyl-2-oxo-1,2-dihydro-3H-imidazo[4,5-b]pyridin-3-yl)pyrrolidin-1-yl)methyl)-1-methyl-1H-imidazole-5-carboxylic acid] is 2.7-fold lower in IC50: 300 nM for the first, 110 nM for the second. The second is the more potent here.

Going from `Cn1c(C(=O)O)cnc1CN1CCC(C)(n2c(=O)n(-c3ccc(-c4ccccc4)cc3)c3cccnc32)CC1` [Example 23, 2-((4-(1-([1,1′-Biphenyl]-4-yl)-2-oxo-1,2-dihydro-3H-imidazo[4,5-b]pyridin-3-yl)-4-methylpiperidin-1-yl)methyl)-1-methyl-1H-imidazole-5-carboxylic acid] to `Cn1c(C(=O)O)cnc1CN1C[C@@H](F)[C@H](n2c(=O)n(-c3ccc(-c4ccc(C(=O)O)cc4)cc3)c3cccnc32)C1` [Example 25, 2-(((3R,4R)-3-(1-(4′-Carboxy-[1,1′-biphenyl]-4-yl)-2-oxo-1,2-dihydro-3H-imidazo[4,5-b]pyridin-3-yl)-4-fluoropyrrolidin-1-yl)methyl)-1-methyl-1H-imidazole-5-carboxylic acid], the IC50 falls from 5500 nM to 110 nM (50-fold).

`COc1cnc2c(c1)n(-c1ccc(-c3ccc(C(=O)O)cc3)cc1)c(=O)n2[C@H]1CCN(Cc2ncc(C(=O)O)n2C)C1` [Example 24, (S)-2-((3-(1-(4′-Carboxy-[1,1′-biphenyl]-4-yl)-6-methoxy-2-oxo-1,2-dihydro-3H-imidazo[4,5-b]pyridin-3-yl)pyrrolidin-1-yl)methyl)-1-methyl-1H-imidazole-5-carboxylic acid] and `Cn1c(C(=O)O)cnc1CN1CC[C@H](n2c(=O)n(-c3ccc(-c4ccc(C(=O)O)cc4)cc3)c3cc(C(F)(F)F)cnc32)C1` [Example 26, (S)-2-((3-(1-(4′-Carboxy-[1,1′-biphenyl]-4-yl)-2-oxo-6-(trifluoromethyl)-1,2-dihydro-3H-imidazo[4,5-b]pyridin-3-yl)pyrrolidin-1-yl)methyl)-1-methyl-1H-imidazole-5-carboxylic acid] are within 1.5-fold of each other in IC50: 110 nM for the first, 130 nM for the second.

First: Cc1cc(-c2ccccc2)ccc1-n1c(=O)n([C@H]2CCN(Cc3nccn3C)C2)c2ncccc21 [Example 28, (S)-3-(1-((1-Methyl-1H-imidazol-2-yl)methyl)pyrrolidin-3-yl)-1-(3-methyl-[1,1′-biphenyl]-4-yl)-1,3-dihydro-2H-imidazo[4,5-b]pyridin-2-one]
Second: Cc1cc(-c2ccccc2)ccc1-n1c(=O)n([C@@H]2CCN(Cc3nccn3C)C2)c2ncccc21 [Example 30, (R)-3-(1-((1-Methyl-1H-imidazol-2-yl)methyl)pyrrolidin-3-yl)-1-(3-methyl-[1,1′-biphenyl]-4-yl)-1,3-dihydro-2H-imidazo[4,5-b]pyridin-2-one]
The IC50 of the first is 8.1-fold higher: 28200 nM for the first, 3480 nM for the second. The second is the more potent here.

Compared with `Cc1cccnc1CN1CC[C@H](n2c(=O)n(-c3ccc(-c4ccc(C#N)cc4)cc3)c3cccnc32)C1` [Example 34, (S)-4′-(3-(1-((3-Methylpyridin-2-yl)methyl)pyrrolidin-3-yl)-2-oxo-2,3-dihydro-1H-imidazo[4,5-b]pyridin-1-yl)-[1,1′-biphenyl]-4-carbonitrile], `Cc1cccnc1CN1CC[C@H](n2c(=O)n(-c3ccc(-c4ccc(OC(F)(F)F)cc4)cc3)c3cccnc32)C1` [Example 35, (S)-3-(1-((3-Methylpyridin-2-yl)methyl)pyrrolidin-3-yl)-1-(4′-(trifluoromethoxy)-[1,1′-biphenyl]-4-yl)-1,3-dihydro-2H-imidazo[4,5-b]pyridin-2-one] is 14-fold higher in IC50: 5700 nM for the first, 80500 nM for the second. The first is the more potent here.

Same assay, conditions: read-out: inhibition rate at the compound concentration of 100 μM (numerals with *); compound concentration 100 μM

First: Cc1cccnc1CN1CC[C@H](n2c(=O)n(-c3ccc(C(=O)O)cc3)c3cccnc32)C1 [Example 21, (S)-4-(3-(1-((3-Methylpyridin-2-yl)methyl)pyrrolidin-3-yl)-2-oxo-2,3-dihydro-1H-imidazo[4,5-b]pyridin-1-yl)benzoic acid hydrochloride]
Second: Cc1cccnc1CN1CC[C@H](n2c(=O)n(-c3ccc(-c4ccccc4C(F)(F)F)cc3)c3cccnc32)C1 [Example 33, (S)-3-(1-((3-Methylpyridin-2-yl)methyl)pyrrolidin-3-yl)-1-(2′-(trifluoromethyl)-[1,1′-biphenyl]-4-yl)-1,3-dihydro-2H-imidazo[4,5-b]pyridin-2-one]
The inhibition at 100 µM of the first is lower: 39% for the first, 41% for the second.
